In test [1] the target is T1, human GPR4 (Homo sapiens (Human), UniProt P46093). Briefly: Human GPR4 binding assay ([3H]4 radioligand, membranes of 300.19 cells expressing human GPR4). As to conditions: radioligand [3H]4 (example 39), membranes of 300.19 cells expressing human GPR4. As for the experimental part: a) Human GPR4 Binding Assay
(§1) Cells were grown in T175 flasks to a density of about 1×10^6 cells/mL in growth medium. The cells were harvested by centrifugation (3000 rpm for 30 minutes at 4° C.) and the pellet resuspended in ice cold buffer A (20 mM HEPES pH 7.8, 10 mM EDTA, 100 mM NaCl, 1 tab/40 mL protease inhibitor complete). […] The homogenate was centrifuged at 18000 rpm for 50 min at 4° C. and the membrane protein pellet resuspended in cold buffer A using the Polytron (2×20 seconds). The protein concentration is determined using the Bio Rad Protein Assay and human IgG as standard. The volume of the membrane protein suspension is adjusted to a final concentration of about 2 mg protein/mL. The suspension is then once again homogenized (Polytron) on ice at 25000 rpm for 20 seconds before being aliquoted and stored at −80° C.
(§2) Radio Ligand Binding Assay: Serial dilutions of compounds (stock in 10 mM DMSO) are prepared by first diluting the compounds in DMSO followed by a 1:50 dilution into assay buffer (10 mM HEPES, pH 8.0, 100 mM NaCl, 5 mM MgCl2, 1 mM CaCl2, 0.5% fatty acid-free BSA, 0.05% Tween-20). […] The desired amount of membranes (20 μg/well) is diluted with assay buffer. […] 100 μL of the membrane-suspension is added and the plate stirred for 60 minutes. […] The filter plate is washed 5 times with ice-cold wash buffer, dried and sealed at the bottom. Then 20 μL of Microscint 40 is added into each well and the top of the plate is sealed. Finally the plate is counted for 2 min/well in a TopCount NXT instrument (Packard Instruments). The data are analyzed using the GraphPad Prism™ software.

The target of test [2] is T1, human GPR4. Briefly: Human GPR4 binding assay with additional human serum albumin (4% HSA). As to conditions: binding assay with 4% HSA. As for the experimental part: as §1, §2
In a similar manner, a binding assay with additional human serum albumin (4% HSA) has been established.

Test [3] deals with mouse GPR4 (Mus musculus (Mouse), UniProt Q8BUD0). The test can be described thus: Mouse GPR4 cAMP assay. It is filed as cell-based. As for the experimental part: (§3) HeLa cells stably expressing human GPR4 were established by transfecting the cells with a construct containing the human GPR4 coding sequence. The cells were grown in Dulbecco's Modified Eagle Medium (DMEM)/HAM's tissue culture medium F12 (HAM's F12) supplemented with 10% fetal calf serum (FCS), 100 u/ml penicillin, 100 μg/ml streptomycin and 400 μg/ml G418 and 10 mM Hepes pH 8.0. pH-induced formation of cAMP was determined using the homogeneous time resolved fluorescence (HTRF) technology as provided by CisBio Inc. The cells were seeded in 384-well plates and cultured for 24 hours at 37° C., 5% CO2 before performing the assay. Medium was removed and 10 μl buffer A (Hepes buffered saline (HBS), 10 mM Hepes, pH 8, 2 mM 3-Isobutyl-1-methylxanthin (IBMX)) was added. For compound testing, buffer A with 2× concentrated compounds was used. Cells were incubated for 15 min at room temperature. 10 μl buffer B (HBS, 30 mM Hepes, specific pH) was added to reach the appropriate final pH for stimulation (see below) and incubation was continued for 15 min at room temperature. […] HBS: 130 mM NaCl, 0.9 mM NaH2 PO4, 5.4 mM KCl, 0.8 mM MgSO4, CaCl2 1.8 mM, 25 mM glucose, 10-30 mM Hepes. Adjustment of HBS buffers:
(§4) Compounds were diluted from fresh stock solutions at 10 mM in DMSO to 2 mM and then used for serial dilutions in DMSO.
(§5) In a similar manner, assays for the mouse (m) and rat (r) GPR4 receptors have been established.
Background: cAMP levels reflect the balance of adenylyl cyclase and phosphodiesterase activity.

The target of test [4] is rat GPR4 (Rattus norvegicus (Rat), UniProt Q4KLH9). The test can be described thus: Rat GPR4 cAMP assay. In kind it is cell-based. As to conditions: read-out: r cAMP IC50. As to the method: as §3, §4, §5
The target of test [5] is Human H3 (Homo sapiens (Human), UniProt Q9Y5N1). Briefly: Human H3 binding assay (SPA, [3H]-R-alpha-Methylhistamine). The settings on record: 3 nM [3H]-R-alpha-Methylhistamine. As for the experimental part:
c) Human H3 Binding Assay
The Scintillation Proximity Binding Assay (SPA) assay was performed in a final volume of 50 μL per well in a 384-well polystyrene plate.
The final concentration of the radioligand was 3 nM. • 20 μL of a beads (PVT-WGA type A) and membranes mixed suspension in assay buffer, in order to get a final concentration of 10 μg/well of membranes and 200 μg/well of beads. As an example, 1471 μL membranes (Conc.: 5.1 mg/mL) and 1500 μL of bead suspension (Conc.: 100 mg/mL) are diluted to a final volume of 15 mL of assay buffer.
The plates were sealed and shaken at room temperature, then allowed to stand at room temperature for at least 1 hour. The plates were counted using a Perkin Elmer TopCount reader, each well being counted for 1 minute.

For test [6], the target named is T1, human GPR4. Briefly: Cell-based assay for human GPR4 activity (pH-induced cAMP formation, HTRF, HeLa cells). The settings on record: HeLa cells stably expressing human GPR4, pH-induced cAMP. As to the method: b) Cell-Based Assay for Human GPR4 Activity
as §3, §4

Test [7] concerns CFA-induced hyperalgesia. Briefly: Established rat hyperalgesia model (CFA). It is filed as in vivo. The settings on record: gavage. As to the method: f) Established Rat Hyperalgesia Model
Naïve withdrawal thresholds of both hind paws were determined by using an increasing pressure stimulus placed onto the dorsal surface of each paw using an analgesymeter. Delayed inflammatory pain was then induced by intra-plantar injection of 25 μl of complete Freund's adjuvant (CFA) into one hindpaw with the contralateral paw acting as the control. […] One hour later, paw withdrawal thresholds were re-measured on both the ipsilateral (CFA-injected) and contralateral (uninjected) paw; measurements were repeated at 3 hrs and 6 hrs post dosing. The reversal of hyperalgesia was calculated using the following formula: Reversal (%)=100×(postdose ipsilateral threshold−predose ipsilateral threshold) (naïve ipsilateral threshold−predose ipsilateral threshold).

pIC50: −log10 of the molar value. Counter-ions that a name gives are not always drawn.

T1 sequence (P46093 whole entry): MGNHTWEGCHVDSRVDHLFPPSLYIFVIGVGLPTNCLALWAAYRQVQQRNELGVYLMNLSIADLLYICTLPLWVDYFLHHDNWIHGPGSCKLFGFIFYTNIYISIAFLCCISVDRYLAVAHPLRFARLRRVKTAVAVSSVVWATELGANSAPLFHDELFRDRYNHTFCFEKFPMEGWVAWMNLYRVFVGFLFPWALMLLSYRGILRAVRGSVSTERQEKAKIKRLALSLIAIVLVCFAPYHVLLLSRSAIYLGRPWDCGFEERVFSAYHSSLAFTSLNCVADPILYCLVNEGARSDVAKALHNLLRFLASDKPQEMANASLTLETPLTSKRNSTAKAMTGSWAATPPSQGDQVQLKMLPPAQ
Chain of mouse GPR4 (Q8BUD0 whole entry): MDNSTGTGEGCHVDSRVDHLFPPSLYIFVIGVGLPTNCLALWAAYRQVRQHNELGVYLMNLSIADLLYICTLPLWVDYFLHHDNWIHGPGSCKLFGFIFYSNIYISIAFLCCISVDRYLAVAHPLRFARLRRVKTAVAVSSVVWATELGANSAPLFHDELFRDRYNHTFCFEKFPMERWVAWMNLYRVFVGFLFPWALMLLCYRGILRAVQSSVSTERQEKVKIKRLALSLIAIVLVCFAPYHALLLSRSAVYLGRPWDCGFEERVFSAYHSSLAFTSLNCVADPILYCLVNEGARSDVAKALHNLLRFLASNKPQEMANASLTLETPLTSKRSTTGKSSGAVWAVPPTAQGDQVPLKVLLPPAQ
Chain of Human H3 (Q9Y5N1 whole entry): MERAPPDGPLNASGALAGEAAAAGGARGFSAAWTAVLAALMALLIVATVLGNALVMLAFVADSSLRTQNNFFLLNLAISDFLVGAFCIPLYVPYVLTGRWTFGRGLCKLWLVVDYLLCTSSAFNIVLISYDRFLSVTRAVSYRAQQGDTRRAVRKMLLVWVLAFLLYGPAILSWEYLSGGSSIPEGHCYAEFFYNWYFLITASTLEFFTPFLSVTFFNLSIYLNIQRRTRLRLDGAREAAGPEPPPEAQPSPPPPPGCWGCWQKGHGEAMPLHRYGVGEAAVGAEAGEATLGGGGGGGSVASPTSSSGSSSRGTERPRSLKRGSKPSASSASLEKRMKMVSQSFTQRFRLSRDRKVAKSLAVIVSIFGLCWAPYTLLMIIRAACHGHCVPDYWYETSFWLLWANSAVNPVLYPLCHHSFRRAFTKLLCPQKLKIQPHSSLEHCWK
Chain of rat GPR4 (Q4KLH9 whole entry): as the sequence (Q8BUD0 whole entry) above, with G8W, H51R, S339T counted along it

As for `CCc1nn2c(C)cc(C)nc2c1Cc1ccc(OCC2CCN(C(=O)[C@H]3NCC[C@H]3O)CC2)cc1` [Example 22, {4-[4-(2-Ethyl-5,7-dimethyl-pyrazolo[1,5-a]pyrimidin-3-ylmethyl)-phenoxymethyl]-piperidin-1-yl}-((2S,3R)-3-hydroxy-pyrrolidin-2-yl)-methanone], the pIC50 is 7.72 in test [1]; 7.92 in test [2]; 7.05 in test [3]; 6.69 in test [4]; < 4.52 in test [5].

On to `CCc1nn2c(C)cc(C)nc2c1Cc1ccc(/C=C/CN2CCC(c3nnnn3C)CC2)cc1` [Example 12, 2-Ethyl-5,7-dimethyl-3-(4-{(E)-3-[4-(1-methyl-1H-tetrazol-5-yl)-piperidin-1-yl]-propenyl}-benzyl)-pyrazolo[1,5-a]pyrimidine hydrochloride], for which the pIC50 in test [1] is 7.48; in test [6] it was 7.57; in test [3], 6.63; in test [4], 6.74; in test [5] it was < 4.52.

As to `CCc1nn2c(C)cc(C)nc2c1Cc1ccc(-n2cc(CN3CCC(N)CC3)cn2)cc1` [Example 30, 1-{1-[4-(2-Ethyl-5,7-dimethyl-pyrazolo[1,5-a]pyrimidin-3-ylmethyl)-phenyl]-1H-pyrazol-4-ylmethyl}-piperidin-4-ylamine], the negative logarithm of the IC50 (pIC50) is 7.59 in test [1]; 7.54 in test [6]; 6.42 in test [3]; 6.30 in test [4]; < 4.52 in test [5].

With `CCc1nn2c(C)cc(C)nc2c1Cc1ccc(OC[C@H]2CC[C@@H](NC(=O)[C@H]3NCC[C@H]3O)CC2)cc1` [Example 24, (2S,3R)-3-Hydroxy-pyrrolidine-2-carboxylic acid {4-[4-(2-ethyl-5,7-dimethyl-pyrazolo[1,5-a]pyrimidin-3-ylmethyl)-phenoxymethyl]-cyclohexyl}-amide], the negative logarithm of the IC50 (pIC50) was 7.20 in test [2]; 7.15 in test [6]; 6.44 in test [3]; 6.10 in test [4]; < 4.52 in test [5].

Regarding `CCc1nn2c(C)cc(C)nc2c1Cc1ccc(-n2cc(CN3CCN[C@@H](CO)C3)cn2)cc1` [Example 32, ((R)-4-{1-[4-(2-Ethyl-5,7-dimethyl-pyrazolo[1,5-a]pyrimidin-3-ylmethyl)-phenyl]-1H-pyrazol-4-ylmethyl}-piperazin-2-yl)-methanol], the pIC50 is 7.21 in test [6], 6.59 in test [3], 5.88 in test [4] and < 4.52 in test [5].

With `CCc1nn2c(C)cc(C)nc2c1Cc1ccc(/C=C/CC2(O)CCN(C[C@@H](O)CO)CC2)cc1` [Example 6, (R)-3-(4-{(E)-3-[4-(2-Ethyl-5,7-dimethyl-pyrazolo[1,5-a]pyrimidin-3-ylmethyl)-phenyl]-allyl}-4-hydroxy-piperidin-1-yl)-propane-1,2-diol], the negative logarithm of the IC50 (pIC50) in test [1] is 7.62; in test [6], 7.72; in test [3], 6.89; in test [4], 6.31.

For `CCc1nn2c(C)cc(C)nc2c1Cc1ccc(/C=C/CN2CCN(C(=O)CN)CC2)cc1` [Example 11, 2-Amino-1-(4-{(E)-3-[4-(2-ethyl-5,7-dimethyl-pyrazolo[1,5-a]pyrimidin-3-ylmethyl)-phenyl]-allyl}-piperazin-1-yl)-ethanone dihydrochloride], the pIC50 was 7.42 in test [1]; 7.34 in test [6]; 6.30 in test [3]; 5.55 in test [4]; < 4.52 in test [5].

Consider `CCc1nn2c(C)cc(C)nc2c1Cc1ccc(-c2nnc(C3CCN(C(=O)CNC)CC3)o2)cc1` [Example 37, 1-(4-{5-[4-(2-Ethyl-5,7-dimethyl-pyrazolo[1,5-a]pyrimidin-3-ylmethyl)-phenyl]-[1,3,4]oxadiazol-2-yl}-piperidin-1-yl)-2-methylamino-ethanone], for which the negative logarithm of the IC50 (pIC50) in test [6] was 7.40.

Turning to `CCc1nn2c(C)cc(C)nc2c1Cc1ccc(C(=O)NCC2CCNCC2)cc1` [Example 20, 4-(2-Ethyl-5,7-dimethyl-pyrazolo[1,5-a]pyrimidin-3-ylmethyl)-N-piperidin-4-ylmethyl-benzamide], the pIC50 in test [6] was 7.10; in test [3], 6.44; in test [4], 5.82; in test [5], < 4.52.

On to `O=C(O)Cc1ccccc1Nc1c(Cl)cccc1Cl` [diclofenac, reference compound], for which the “% reversal of hyperalgesia” value was 58% in test [7] (30 mg/kg, 1 h); 60% in test [7] (30 mg/kg, 3 h); 30% in test [7] (30 mg/kg, 6 h).

For the compound `CCc1nn2c(C)cc(C)nc2c1Cc1ccc(-n2cc(CN3CCNCC3)nn2)cc1` [Example 33, 2-Ethyl-5,7-dimethyl-3-[4-(4-piperazin-1-ylmethyl-[1,2,3]triazol-1-yl)-benzyl]-pyrazolo[1,5-a]pyrimidine], the pIC50 in test [1] was 7.42; in test [6] it was 7.51; in test [3] it was 6.06; in test [4], 6.21; in test [5] it was < 5.00.

As to `CCc1nn2c(C)cc(C)nc2c1Cc1ccc(OCC2CCNCC2)cc1` [Example 21, 2-Ethyl-5,7-dimethyl-3-[4-(piperidin-4-ylmethoxy)-benzyl]-pyrazolo[1,5-a]pyrimidine hydrochloride], the negative-log IC50 (pIC50) in test [6] was 7.92; in test [3], 7.02; in test [4], 6.31; in test [5] it was 4.60.

As for `CCc1nc2c(C)cc(C)nc2n1Cc1ccc(/C=C/CN2CCN(C(C)C)CC2)cc1` [Example 40, 2-Ethyl-3-{4-[(E)-3-(4-isopropyl-piperazin-1-yl)-propenyl]-benzyl}-5,7-dimethyl-3H-imidazo[4,5-b]pyridine, reference compound], the “% reversal of hyperalgesia” value in test [7] (3 mg/kg, 1 h) was 23%; in test [7] (3 mg/kg, 3 h), 11%; in test [7] (3 mg/kg, 6 h) it was 0%; in test [7] (10 mg/kg, 1 h), 48%; in test [7] (10 mg/kg, 3 h), 40%; in test [7] (10 mg/kg, 6 h), 0%. Besides, the “% reversal of hyperalgesia” value in test [7] (30 mg/kg, 1 h) was 55%; in test [7] (30 mg/kg, 3 h), 45%; in test [7] (30 mg/kg, 6 h), 8%.

By pIC50 is commonly meant the negative decadic logarithm of the IC50, by convention in mol/L.
